Measurements as given in patent US6518262B1, “22R-hydroxycholesta-8, 14-diene derivatives for the inhibition of meiosis” (Akzo Nobel N.V., priority 1999, dated 2003).

Test system: denuded oocytes (DO)
Experiment: Oocyte assay, agonistic testing, denuded oocytes (DO assay)
Assay type: cell-based, mice (B6D2-F1, strain C57BL×DBA)
Conditions: compound 5 μM, hypoxanthine medium, 22 hours culture, control value in brackets
Text: Oocytes arrested in meiosis contain diffused chromosomes which are surrounded by an intact nuclear envelope known as the germinal vesicle (GV). Upon reinitiation of meiosis by the midcycle gonadotropin surge, the chromosomes recondense and the GV breaks down (GVBD). In vivo, the oocyte is exposed to hypoxanthine (HX), which maintains the oocyte arrested in the meiotic prophase. This meiotic arrest can be mimicked in vitro by addition of hypoxanthine to the culture medium. The agonistic activity of meiosis activating substances is measured as the ability to overcome the hypoxanthine maintained meiotic arrest in denuded oocytes (DO) or cumulus enclosed oocytes (CEO), i.e. as the ability to induce meiotic resumption in vitro.
Ovaries are obtained from immature female mice (B6D2-F1, strain C57BL×DBA). At the age of 19, 20 or 21 days the mice are injected subcutaneously with a single dose of 20 IU follicle stimulating hormone (Humegon, Organon, The Netherlands) in saline.
Forty-eight hours after follicle stimulating hormone injection mice are killed by cervical dislocation. The ovaries are removed, freed of extraneous tissue and placed in a multidish containing 0.5 ml preparation medium at 37° C. L-15 Leibovitz medium (Gibco, pH 7.3±0.1) supplemented with bovine serum albumin (3 mg·ml^−1), L-glutamine (0.23 mM), sodium pyruvate (2 mM) and hypoxanthine (4 mM) is used as preparation medium. The antral follicles of the ovaries are punctured under a dissecting microscope using two 27-gauge needles attached to two 1 ml syringes. Cumulus enclosed oocytes (CEO) of uniform size are selected with a mouth-controlled pipette and rinsed in 0.5 ml fresh preparation medium. About 20 CEO are obtained from one ovary.
Oocytes freed from cumulus cells, i.e. denuded oocytes (DO), are obtained by gently flushing CEO through a fine-bore mouth-controlled pipette. DO were collected in fresh MEM alpha medium, containing bovine serum albumin (3 mg·ml^−1), L-glutamine (0.23 mM), sodium pyruvate (2 mM) and hypoxanthine (4 mM), and washed twice before transfer to the test medium.
The oocyte assay is performed in 3 blocks, each block represents the ovaries of one mouse (randomized block design). […] At t=0 the number of oocytes with intact germinal vesicles (GV) or germinal vesicle break-down (GVBD) is counted under an inverted microscope with differential interference contrast equipment. […] At the end of the culture period the number of oocytes with GV or GVBD per group is counted. For statistical analysis the percentage germinal vesicle breakdown is calculated for each group in one block. These percentages are subjected to arcsin transformation, and differences between control and test compounds are analyzed by an ANOVA test for a randomized block design. […]

CC(C)CC[C@@H](O)[C@@H](C)[C@H]1CC=C2C3=C(CC[C@@]21C)[C@@]1(C)CC[C@H](O)C(C)(C)[C@@H]1CC3 [Example 1, (3β,5α,20S,22R)-4,4-Dimethylcholesta-8,14-diene-3,22-diol]
% GVBD DO assay exp.: 0(0) %

CC(C)=CC[C@@H](O)[C@@H](C)[C@H]1CC=C2C3=C(CC[C@@]21C)[C@@]1(C)CC[C@H](O)C(C)(C)[C@@H]1CC3 [Example 2, (3β,5α,20S,22R)-4,4-Dimethylcholesta-8,14,24-triene-3,22-diol]
% GVBD DO assay exp.: 3(3) %
